Data: patent US20040229825A1, “Pharmaceutical composition for treatment of infection with drug resistant bacterium and disinfectant” (priority 2003, published 2004)
≈ marks a conversion by molar mass, not a printed value. Like-named read-outs stand apart in the source and are kept apart here.

Assays:
MRSA [1] = assay: Antibacterial activity of flavonoids on MRSA (agar plate dilution method, MIC); type: cell-based, Staphylococcus aureus; settings: flavonoid alone; for MIC: 20 h
Experimental: (§1) MRSA were employed as bacteria to be tested. The antibacterial activity was determined according to the agar plate dilution method defined by Japan Society of Chemotherapy (Chemotherapy 29(1), 76-79(1981)). The employed plate medium for the measurement of sensitivity was semisynthetic medium based on Mueller-Hinton Agar, and the bacteria solution for seeding was prepared by incubating the test bacterium in Mueller-Hinton Broth at 37° C. for 20 hours, followed by diluting in 0.85% saline to give 10^6 CFU/mL. The test samples were produced in two times-serial dilution method. To this plate medium for the measurement of sensitivity, was seeded a bacteria solution with a Micro Planter® (Sakuma Seisakusho). After incubating at 37° C. for 20 hours, a minimum inhibitory concentration (MIC) was determined. […] In addition, MIC50 indicates a concentration yielding the proliferation inhibitory effect in 50% of total number of MRSA strains, whilst MIC90 indicates a concentration yielding the proliferation inhibitory effect in 90% of total number of MRSA strains.

MRSA [2] = assay: Enhancement of the antibacterial activity of methicillin by various flavonoids on MRSA; type: cell-based, Staphylococcus aureus; settings: 50 μg/mL of the named flavonoid added
Experimental: as §1
Antibacterial Activities of Methicillin on MRSA with 50 μg/mL of Various Flavonoids

MRSA [3] = assay: Enhancement of the antibacterial activity of various antibiotics by flavone on MRSA; type: cell-based, Staphylococcus aureus; settings: for MIC: Staphylococcus aureus, antibiotics alone; for MIC +flavone: addition of 50 μg/mL of flavone
Experimental: as §1
Antibacterial Activities of Various β-Lactam Antibiotics on MRSA with 50 μg/mL of Flavone

[4] = test system: penicillinase producing Staphylococcus aureus; assay: Effects of flavone in combination with benzylpenicillin or methicillin on penicillinase producing Staphylococcus aureus; type: cell-based
Experimental: as §1
The effects of flavone in combination with benzylpenicillin or methicillin on penicillinase producing Staphylococcus aureus are shown in Table 4.
Effects of Flavone in Combination with Benzylpenicillin or Methicillin on Penicillinase Producing Staphylococcus aureus.

MRSA infected mouse = assay: Antibacterial activity on MRSA infected mouse (survival rate after 5 days); type: in vivo
Experimental: MRSA was incubated with Brain-Heart Infusion medium at 37° C. for 18 hours, and then the bacteria were collected and washed, followed by resuspension in saline. The suspension was admixed in an aqueous 5% gastric mucin solution and the concentration was adjusted to a predetermined value. Then, 0.2 mL of the mixture was intraperitoneally administered to an ICR strain SPF mouse. At one hour after the infection, various concentrations of β-lactam agents and rutin (0.2 mL) was subcutaneously administered, and survival rate was analyzed after 5 days and thus the effectiveness was evaluated. In addition, the effectiveness by oral administration (0.2 mL) was evaluated and various concentrations of β-lactam agents and rutin (0.2 mL) were administered using a gastric probe 1 hour or 5 hours prior to the infection.

[5] = Staphylococcus aureus, MRSA 20 strains
[6] = Staphylococcus aureus, MRSA 20 strains, read-out: MIC50
[7] = Staphylococcus aureus, MRSA 20 strains, read-out: MIC90

Row | MIC50 (MRSA [1]; [6]) | MIC90 (MRSA [1]; [7]) | MIC (MRSA [3]) | MIC +flavone (MRSA [3]) | Structure (SMILES) | further results
1 |  |  |  |  | O=C1c2ccc(O)cc2OC(c2cc(O)c(O)c(O)c2)C1O (stereo in doubt) [dihydrorobinetin] | MIC50 (MRSA [1]; MRSA 20 strains): 250 µg/mL (≈ 822 µM); MIC90 (MRSA [1]; MRSA 20 strains): 250 µg/mL (≈ 822 µM); MIC range (MRSA [1]; MRSA 20 strains): 250 µg/mL (≈ 822 µM)
2 | 125 µg/mL (≈ 492 µM) | 250 µg/mL (≈ 983 µM) |  |  | O=c1cc(-c2ccc(O)c(O)c2)oc2ccccc12 [3′,4′-dihydroxyflavone] | MIC (MRSA [1]; [5]): 62.5 to 250 µg/mL (≈ 246 to 983 µM); antibacterial activity on MRSA (in words) (MRSA [1]): potent antibacterial activity
3 | 62.5 µg/mL (≈ 246 µM) | 125 µg/mL (≈ 492 µM) |  |  | O=c1cc(-c2ccccc2)oc2cc(O)c(O)cc12 [6,7-dihydroxyflavone] | antibacterial activity on MRSA (in words) (MRSA [1]): potent antibacterial activity
4 | 250 µg/mL (≈ 983 µM) | 500 µg/mL (≈ 1970 µM) |  |  | O=c1cc(-c2ccc(O)cc2)oc2cc(O)ccc12 [7,4′-dihydroxyflavone] | MIC (MRSA [1]; [5]): 125 to 500 µg/mL (≈ 492 to 1970 µM)
5 | 62.5 µg/mL (≈ 246 µM) | 125 µg/mL (≈ 492 µM) |  |  | O=c1cc(-c2ccccc2)oc2c(O)c(O)ccc12 [7,8-dihydroxyflavone] | MIC (MRSA [1]; [5]): 31.3 to 125 µg/mL (≈ 123 to 492 µM); antibacterial activity on MRSA (in words) (MRSA [1]): potent antibacterial activity
6 |  |  |  |  | Oc1cc(O)c2c(c1)O[C@@H](c1cc(O)c(O)c(O)c1)[C@H](O)C2 [(−)-gallocatechin] | MIC of methicillin (MRSA [2]): 2 µg/mL
7 |  |  | 64 µg/mL | 32 µg/mL | CC1(C)S[C@@H]2[C@H](NC(=O)Cc3ccccc3)C(=O)N2[C@H]1C(=O)O [benzylpenicillin] | MIC ([4]; + flavone 50 μg/mL): 0.39 µg/mL; MIC ([4]; antibiotic alone): 1.56 µg/mL
8 | 250 µg/mL (≈ 918 µM) | 250 µg/mL (≈ 918 µM) |  |  | O=C(/C=C/c1ccc(O)c(O)c1)c1ccc(O)cc1O [butein] | MIC (MRSA [1]; [5]): 125 to 250 µg/mL (≈ 459 to 918 µM)
9 |  |  | > 256 µg/mL | 4 µg/mL | CC1(C)S[C@@H]2[C@H](NC(=O)C(C(=O)O)c3ccccc3)C(=O)N2[C@H]1C(=O)O (stereo partly shown) [carbenicillin] | 
10 |  |  | > 1020 µg/mL | 64 µg/mL | CO/N=C(\C(=O)N[C@@H]1C(=O)N2C(C(=O)O)=C(COC(C)=O)CS[C@H]12)c1csc(N)n1 [cefotaxime] | 
11 |  |  | 512 µg/mL | 32 µg/mL | CO[C@@]1(NC(=O)Cc2cccs2)C(=O)N2C(C(=O)O)=C(COC(N)=O)CS[C@@H]21 [cefoxitin] | 
12 |  |  | > 256 µg/mL | 1 µg/mL | CC1=C(C(=O)O)N2C(=O)[C@@H](NC(=O)[C@H](N)C3=CCC=CC3)[C@H]2SC1 [cefradine] | 
13 |  |  | 1020 µg/mL | 512 µg/mL | CO/N=C(\C(=O)N[C@@H]1C(=O)N2C(C(=O)O)=C(COC(N)=O)CS[C@H]12)c1ccco1 [cefuroxime] | 
14 | 250 µg/mL | > 500 µg/mL |  |  | Oc1cc(O)c2cc(O)c(-c3ccc(O)c(O)c3)[o+]c2c1 [cyanidin] | 

Row | Structure (SMILES) | MIC50 (MRSA [1]; [6]) | MIC90 (MRSA [1]; [7]) | MIC (MRSA [3]) | MIC +flavone (MRSA [3]) | further results
15 | CC(=O)OCC1=C(C(=O)O)N2C(=O)[C@@H](NC(=O)CSc3ccncc3)[C@H]2SC1 [cefapirin] |  |  | 128 µg/mL | <0.016 µg/mL | survival rate (MRSA infected mouse; antibiotic alone, 0.5 mg/mouse, after 5 days): 20%; survival rate (MRSA infected mouse; antibiotic alone, 1 mg/mouse, after 5 days): 20%; survival rate (MRSA infected mouse; antibiotic alone, 5 mg/mouse, after 5 days): 20%; survival rate (MRSA infected mouse; antibiotic alone, 10 mg/mouse, after 5 days): 20%; survival rate (MRSA infected mouse; antibiotic alone, 15 mg/mouse, after 5 days): 40%; survival rate (MRSA infected mouse; oral, antibiotic 10 mg/mouse with rutin 5 mg/mouse): 40%; survival rate (MRSA infected mouse; oral, antibiotic 10 mg/mouse with rutin 10 mg/mouse): 60%; survival rate (MRSA infected mouse; oral, antibiotic 15 mg/mouse with rutin 5 mg/mouse): 60%; survival rate (MRSA infected mouse; oral, antibiotic 15 mg/mouse with rutin 10 mg/mouse): 80%; survival rate (MRSA infected mouse; subcutaneous, antibiotic 10 mg/mouse with rutin 5 mg/mouse): 0%; survival rate (MRSA infected mouse; subcutaneous, antibiotic 10 mg/mouse with rutin 10 mg/mouse): 20%; survival rate (MRSA infected mouse; subcutaneous, antibiotic 15 mg/mouse with rutin 5 mg/mouse): 80%; survival rate (MRSA infected mouse; subcutaneous, antibiotic 15 mg/mouse with rutin 10 mg/mouse): 100%
